US4618622A, “Sulfonates of hydroxycoumarins” (priority 1982, dated 1986)

System: reserpine-induced hypothermia
Test: Antidepressant action: inhibition of reserpine-induced hypothermia (reserpine test)
Assay type: in vivo, mouse (male, Swiss strain)
Details: Mus musculus, po, 2 h, read-out: Antidepressant action (mouse) ED50
Procedure: The test substances are administered orally, 60 minutes before the reserpine.

Row | Structure (SMILES) | ED50 [mg/kg]
1 | Cc1cc(=O)oc2cc(OS(=O)(=O)c3ccc(Cl)cc3)ccc12 [Example 40, 7-Hydroxy-4-methylcoumarin 4'-chlorobenzenesulfonate] | 8.7

Same assay, conditions: oral administration, 60 minutes before reserpine 2.15 mg/kg s.c.; mouse; temperature 2 hours after; read-out: Antidepressant action (mouse) ED50

Row | Structure (SMILES) | ED50 [mg/kg]
2 | Cc1c(C)c2ccc(OS(C)(=O)=O)cc2oc1=O [Example 2, 7-Hydroxy-3,4-dimethylcoumarin methanesulfonate] | 5.9
3 | Cc1c(C)c2ccc(OS(=O)(=O)c3ccc4ccccc4c3)cc2oc1=O [Example 4, 7-Hydroxy-3,4-dimethylcoumarin naphthalene-2'-sulfonate] | 4
4 | Cc1c(C)c2ccc(OS(=O)(=O)c3ccc(Cl)cc3)cc2oc1=O [Example 9, 7-Hydroxy-3,4-dimethylcoumarin 4'-chlorobenzenesulfonate] | 6.1
5 | Cc1c(C)c2ccc(OS(=O)(=O)c3ccc(Br)cc3)cc2oc1=O [Example 11, 7-Hydroxy-3,4-dimethylcoumarin 4'-bromobenzenesulfonate] | 2.5
6 | Cc1c(C)c2ccc(OS(=O)(=O)c3ccc(F)cc3)cc2oc1=O [Example 14, 7-Hydroxy-3,4-dimethylcoumarin 4'-fluorobenzenesulfonate] | 1.4
7 | Cc1c(C)c2ccc(OS(=O)(=O)c3ccc(C#N)cc3)cc2oc1=O [Example 18, 7-Hydroxy-3,4-dimethylcoumarin 4'-cyanobenzenesulfonate] | 3.6
8 | CCCS(=O)(=O)Oc1ccc2c(C)c(C)c(=O)oc2c1 [Example 22, 7-Hydroxy-3,4-dimethylcoumarin propanesulfonate] | 1.4
9 | Cc1c(C)c2ccc(OS(=O)(=O)C(C)C)cc2oc1=O [Example 23, 7-Hydroxy-3,4-dimethylcoumarin isopropanesulfonate] | 3.1
10 | Cc1c(C)c2ccc(OS(=O)(=O)C(F)(F)F)cc2oc1=O [Example 24, 7-Hydroxy-3,4-dimethylcoumarin trifluoromethanesulfonate] | 3.7
11 | CCCCS(=O)(=O)Oc1ccc2c(C)c(C)c(=O)oc2c1 [Example 26, 7-Hydroxy-3,4-dimethylcoumarin butanesulfonate] | 1.8
12 | Cc1cc2ccc(OS(=O)(=O)c3ccc(Cl)cc3)cc2oc1=O [Example 30, 7-Hydroxy-3-methylcoumarin 4'-chlorobenzenesulfonate] | 9
13 | CCCCCS(=O)(=O)Oc1ccc2c(C)c(C)c(=O)oc2c1 [Example 38, 7-Hydroxy-3,4-dimethylcoumarin pentanesulfonate] | 1.4
14 | CCS(=O)(=O)Oc1ccc2c(C)c(C)c(=O)oc2c1 [Example 39, 7-Hydroxy-3,4-dimethylcoumarin ethanesulfonate] | 1.7
15 | Cc1cc(=O)oc2cc(OS(=O)(=O)c3ccccc3)ccc12 [Example 41, 7-Hydroxy-4-methylcoumarin benzenesulfonate] | 29.7
16 | Cc1cc(=O)oc2cc(OS(C)(=O)=O)ccc12 [Example 42, 7-Hydroxy-4-methylcoumarin methanesulfonate] | 19.6
17 | CNS(=O)(=O)Oc1ccc2c(C)c(C)c(=O)oc2c1 [Example 43, 7-Hydroxy-3,4-dimethylcoumarin N-methylamidosulfonate] | 1.9
18 | Cc1c(C)c2ccc(OS(=O)(=O)CC(C)C)cc2oc1=O [Example 52, 7-Hydroxy-3,4-dimethylcoumarin 2'-methylpropanesulfonate] | 0.3
19 | Cc1c(C)c2ccc(OS(=O)(=O)CCCCl)cc2oc1=O [Example 55, 7-Hydroxy-3,4-dimethylcoumarin 3'-chloropropanesulfonate] | 1.3
20 | Cc1c(C)c2ccc(OS(=O)(=O)CCl)cc2oc1=O [Example 56, 7-Hydroxy-3,4-dimethylcoumarin chloromethanesulfonate] | 3.4
21 | Cc1c(C)c2ccc(OS(=O)(=O)c3cccc([N+](=O)[O-])c3)cc2oc1=O [Example 57, 7-Hydroxy-3,4-dimethylcoumarin 3'-nitrobenzenesulfonate] | 1.5

Target: T1, Monoaminoxidase A (Rattus norvegicus, UniProt P21396)
T1 sequence (P21396 1-526): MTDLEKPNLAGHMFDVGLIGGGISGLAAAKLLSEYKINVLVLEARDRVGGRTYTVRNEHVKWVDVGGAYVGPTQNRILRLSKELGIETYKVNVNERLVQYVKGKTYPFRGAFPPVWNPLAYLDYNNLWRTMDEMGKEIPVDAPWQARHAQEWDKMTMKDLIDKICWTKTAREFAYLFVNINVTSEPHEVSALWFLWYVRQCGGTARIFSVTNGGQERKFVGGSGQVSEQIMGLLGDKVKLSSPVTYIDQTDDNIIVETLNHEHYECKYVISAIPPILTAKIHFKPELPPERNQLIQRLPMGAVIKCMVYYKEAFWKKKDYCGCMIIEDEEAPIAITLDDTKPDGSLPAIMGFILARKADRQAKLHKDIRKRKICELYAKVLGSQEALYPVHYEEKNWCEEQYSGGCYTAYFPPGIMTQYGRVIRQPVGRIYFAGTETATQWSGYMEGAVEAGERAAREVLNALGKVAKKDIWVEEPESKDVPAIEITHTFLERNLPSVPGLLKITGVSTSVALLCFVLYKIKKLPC
Test: biochemical
Details: monoaminoxidase A, rat brain homogenate, 14C-tryptamine 0.4 μmol/liter, 37° C., 20 minutes; read-out: Monoaminoxidase inhibition IC50
Procedure: Monoaminoxidase A is determined in dilute rat brain homogenate to which
1. various concentrations of the test substances and
2. ^14 C-tryptamine in a concentration of 0.4 μmol/liter are added. This mixture is incubated at 37° C. for 20 minutes, after which the reaction is terminated by means of aqueous 0.1N HCl, and the products are extracted with toluene scintillator (PPO+POPOP in toluene) and then determined. The blank value is determined in similar mixtures for an incubation time of t=0 minutes.
The mean inhibitory concentration (IC50) is calculated from the inhibitory values determined, in comparison with the control, at the various inhibitor concentrations, by means of a linear regression after logit-log transformation.

Row | IC50 [nM] | Structure (SMILES)
22 | 27 | Cc1c(C)c2ccc(OS(=O)(=O)c3cc(Cl)ccc3Cl)cc2oc1=O [Example 13, 7-Hydroxy-3,4-dimethylcoumarin 2',5'-dichlorobenzenesulfonate]
23 | 620 | CC(=O)Nc1ccc(S(=O)(=O)Oc2ccc3c(C)c(C)c(=O)oc3c2)cc1 [Example 15, 7-Hydroxy-3,4-dimethylcoumarin 4'-acetylaminobenzenesulfonate]
24 | 9.8 | Cc1cc2ccc(OS(=O)(=O)c3ccc(Br)cc3)cc2oc1=O [Example 19, 7-Hydroxy-3-methylcoumarin 4'-bromobenzenesulfonate]
25 | 67 | Cc1cc2ccc(OS(=O)(=O)c3ccccc3)cc2oc1=O [Example 20, 7-Hydroxy-3-methylcoumarin benzenesulfonate]
26 | 550 | O=c1oc2cc(OS(=O)(=O)c3ccccc3)ccc2c2c1CCCC2 [Example 21, 7-Hydroxy-3,4-tetramethylenecoumarin benzenesulfonate]
27 | 9.6 | CCCS(=O)(=O)Oc1ccc2c(C)c(C)c(=O)oc2c1 [Example 22, 7-Hydroxy-3,4-dimethylcoumarin propanesulfonate]
28 | 3.7 | Cc1c(C)c2ccc(OS(=O)(=O)C(C)C)cc2oc1=O [Example 23, 7-Hydroxy-3,4-dimethylcoumarin isopropanesulfonate]
29 | 77 | Cc1c(C)c2ccc(OS(=O)(=O)Cc3ccccc3)cc2oc1=O [Example 25, 7-Hydroxy-3,4-dimethylcoumarin phenylmethanesulfonate]
30 | 7.3 | CCCCS(=O)(=O)Oc1ccc2c(C)c(C)c(=O)oc2c1 [Example 26, 7-Hydroxy-3,4-dimethylcoumarin butanesulfonate]
31 | 34 | CCCCCCCCS(=O)(=O)Oc1ccc2c(C)c(C)c(=O)oc2c1 [Example 27, 7-Hydroxy-3,4-dimethylcoumarin octanesulfonate]
32 | 290 | O=c1oc2cc(OS(=O)(=O)c3ccc(Br)cc3)ccc2c2c1CCCC2 [Example 28, 7-Hydroxy-3,4-tetramethylenecoumarin 4'-bromobenzenesulfonate]
33 | 110 | O=c1oc2cc(OS(=O)(=O)c3ccc(Cl)cc3)ccc2c2c1CCCC2 [Example 29, 7-Hydroxy-3,4-tetramethylenecoumarin 4'-chlorobenzenesulfonate]
34 | 6.3 | Cc1cc2ccc(OS(=O)(=O)c3ccc(Cl)cc3)cc2oc1=O [Example 30, 7-Hydroxy-3-methylcoumarin 4'-chlorobenzenesulfonate]
35 | 30 | CCc1cc(=O)oc2cc(OS(=O)(=O)c3ccc(Cl)cc3)ccc12 [Example 31, 4-Ethyl-7-hydroxycoumarin 4'-chlorobenzenesulfonate]
36 | 120 | CCc1cc(=O)oc2cc(OS(=O)(=O)c3ccccc3)ccc12 [Example 32, 4-Ethyl-7-hydroxycoumarin benzenesulfonate]
37 | 23 | CCc1c(C)c2ccc(OS(=O)(=O)c3ccc(Cl)cc3)cc2oc1=O [Example 34, 3-Ethyl-7-hydroxy-4-methylcoumarin 4'-chlorobenzenesulfonate]
38 | 67 | CCCc1c(C)c2ccc(OS(=O)(=O)c3ccc(Cl)cc3)cc2oc1=O [Example 37, 7-Hydroxy-4-methyl-3-propylcoumarin 4'-chlorobenzenesulfonate]
39 | 130 | Cc1cc(=O)oc2cc(OS(C)(=O)=O)ccc12 [Example 42, 7-Hydroxy-4-methylcoumarin methanesulfonate]
40 | 160 | CC(C)S(=O)(=O)Oc1ccc2ccc(=O)oc2c1 [Example 45, 7-Hydroxycoumarin isopropanesulfonate]
41 | 22 | COC(=O)Cc1c(C)c2ccc(OS(=O)(=O)c3ccc(Br)cc3)cc2oc1=O [Example 48, 7-Hydroxy-3-carbomethoxymethyl-4-methylcoumarin 4'-bromobenzenesulfonate]
42 | 540 | CCOC(=O)c1cc2ccc(OS(=O)(=O)c3ccc(Cl)cc3)cc2oc1=O [Example 50, 7-Hydroxy-3-carboethoxycoumarin 4'-chlorobenzenesulfonate]
43 | 540 | CCOC(=O)c1cc2ccc(OS(=O)(=O)c3ccc([N+](=O)[O-])cc3)cc2oc1=O [Example 51, 7-Hydroxy-3-carboethoxycoumarin 4'-nitrobenzenesulfonate]
44 | 5.7 | Cc1c(C)c2ccc(OS(=O)(=O)CC(C)C)cc2oc1=O [Example 52, 7-Hydroxy-3,4-dimethylcoumarin 2'-methylpropanesulfonate]
45 | 14 | Cc1c(Cl)c(=O)oc2cc(OS(=O)(=O)C(C)C)ccc12 [Example 60, 7-Hydroxy-3-chloro-4-methylcoumarin isopropanesulfonate]

Continued, compound first:

Row | Structure (SMILES) | IC50 [nM]
46 | Cc1c(C)c2ccc(OS(=O)(=O)c3cccc4ccccc34)cc2oc1=O [Example 3, 7-Hydroxy-3,4-dimethylcoumarin naphthalene-1'-sulfonate] | 76
47 | Cc1c(C)c2ccc(OS(=O)(=O)c3ccccc3[N+](=O)[O-])cc2oc1=O [Example 6, 7-Hydroxy-3,4-dimethylcoumarin 2'-nitrobenzenesulfonate] | 110
48 | Cc1c(C)c2ccc(OS(=O)(=O)c3ccc(OC(F)(F)C(F)F)cc3)cc2oc1=O [Example 8, 7-Hydroxy-3,4-dimethylcoumarin 4'-(α,α,β,β-tetrafluoroethoxy)-benzenesulfonate] | 160
49 | Cc1cc(C)c(S(=O)(=O)Oc2ccc3c(C)c(C)c(=O)oc3c2)c(C)c1 [Example 12, 7-Hydroxy-3,4-dimethylcoumarin 2',4',6'-trimethylbenzenesulfonate] | 51
50 | Cc1c(C)c2ccc(OS(=O)(=O)C(F)(F)F)cc2oc1=O [Example 24, 7-Hydroxy-3,4-dimethylcoumarin trifluoromethanesulfonate] | 75
51 | Cc1cc(=O)oc2cc(OS(=O)(=O)c3ccc(Cl)cc3)ccc12 [Example 40, 7-Hydroxy-4-methylcoumarin 4'-chlorobenzenesulfonate] | 6.5
